Test results published in US10562903B2, “Bridged piperidine derivatives” (Hoffmann-La Roche Inc., priority 2015, dated 2020).

Target: γ-secretase (Homo sapiens, UniProt P49768)
Experiment: Cellular γ-secretase assay (inhibition of Aβ42 secretion, AlphaLisa)
Type: cell-based
Details: Human neuroglioma H4 cells overexpressing human APP695 Swedish double mutation (K595N/M596L); 24 hr compound incubation; secreted Aβ42 in supernatant
Protocol: Human neuroglioma H4 cells overexpressing human APP695 with the Swedish double mutation (K595N/M596L) were plated at 30,000 cells/well/100 μl in 96-well plates in IMDM media containing 10% FCS, 0.2 mg/l Hygromycin B and incubated at 37° C., 5% CO2.
3-4 hr post plating, compounds are a diluted in media and 50 μl is added as 1.5-fold concentrate to achieve the final concentration. Compound incubation is performed for 24 hr. Final doses typically range from 4 μM down to 0.0013 μM in half-log steps resulting in a eight point dose response curve.
Appropriate controls using vehicle only and reference compound were applied to this assay. The final concentration of Me2SO was 0.4%.
After incubation at 37° C., 5% CO2, the supernatant was subjected to quantification of secreted Aβ42 by the means of an AlphaLisa assay kit (Human Amyloid beta 1-42 Kit: Cat # AL203C, Perkin Elmer). 20 μl of the cell culture supernatant was transferred to an assay plate. Then 10 μl of a mixture of the AlphaLisa coupled capture antibody and the biotinylated detection antibody was added and incubated for 3 hours at room temperature while softly shaking the assay plate. After a further addition of 20 μl of the Donor beads the assay plate was incubated for 30 min at room temperature and constant shaking without exposure to direct light. The assay plate was then read on a Paradigm AlphaLisa Reader using the build-in program with excitation at 680 nm and emission at […].
The measured signals were then used to calculate IC50 values for inhibition of Aβ42 secretion by nonlinear regression fit analysis using XLfit 5.3 software (IDBS).

| EC50 | Molecule |
| --- | --- |
| 6 nM | Cc1cc(N2CC3CCC(C2)C3Nc2nc3c(O[C@@H](C)C(F)(F)F)nccn3n2)sn1 (single isomer, unassigned) [Example 36, N-[(8 endo)-3-(3-methylisothiazol-5-yl)-3-azabicyclo[3.2.1]octan-8-yl]-8-((2S or 2R)-1,1,1-trifluoropropan-2-yl)oxy)-[1,2,4]triazolo[1,5-a]pyrazin-2-amine] |
| 27 nM | Cc1cc(N2C[C@H]3CC[C@@H](C2)[C@H]3Nc2nc3c(OC(C)C(F)(F)F)cccn3n2)on1 (single isomer, unassigned) [Example 43, N-[(8 endo)-3-(3-methyl-1,2-oxazol-5-yl)-3-azabicyclo[3.2.1]octan-8-yl]-8-[(2R or 2S)-1,1,1-trifluoropropan-2-yl]oxy-[1,2,4]triazolo[1,5-a]pyridin-2-amine] |
| 43 nM | Cc1noc(N2CC3CCC(C2)C3Nc2nc3c(O[C@H](C)C(F)(F)F)ccc(C(F)(F)F)n3n2)n1 (single isomer, unassigned) [Example 81, N-[(8-endo)-3-(3-methyl-1,2,4-oxadiazol-5-yl)-3-azabicyclo[3.2.1]octan-8-yl]-5-(trifluoromethyl)-8-[(1R or 1S)-2,2,2-trifluoro-1-methyl-ethoxy]-[1,2,4]triazolo[1,5-a]pyridin-2-amine] |

More lines, now with the values behind:

| Molecule | EC50 |
| --- | --- |
| Cc1nsc(N2CC3CCC(C2)C3Nc2nc3c(OC(C)C(F)(F)F)cccn3n2)n1 (single isomer, unassigned) [Example 5, N-[(8-endo)-3-(3-methyl-1,2,4-thiadiazol-5-yl)-3-azabicyclo[3.2.1]octan-8-yl]-8-[(2R or 2S)-1,1,1-trifluoropropan-2-yl]oxy-[1,2,4]triazolo[1,5-a]pyridin-2-amine] | 27 nM |
| Cc1nsc(N2CC3CCC(C2)C3Nc2nc3c(OC(C)C(F)(F)F)cccn3n2)n1 (single isomer, unassigned) [Example 6, N-[(8 endo)-3-(3-methyl-1,2,4-thiadiazol-5-yl)-3-azabicyclo[3.2.1]octan-8-yl]-8-[(2S or 2R)-1,1,1-trifluoropropan-2-yl]oxy-[1,2,4]triazolo[1,5-a]pyridin-2-amine] | 16 nM |
| Cc1cc(N2CC3CCC(C2)C3Nc2nc3c(O[C@H](C)C(F)(F)F)nccn3n2)sn1 (single isomer, unassigned) [Example 35, N-[(8 endo)-3-(3-methylisothiazol-5-yl)-3-azabicyclo[3.2.1]octan-8-yl]-8-((2R or 2S)-1,1,1-trifluoropropan-2-yl)oxy)-[1,2,4]triazolo[1,5-a]pyrazin-2-amine] | 6 nM |
| N[(8 endo)-3-(6-methylpyrimidin-4-yl)-3-azabicyclo[3.2.1]octan-8-yl]-8-(2,2,3,3,3-pentafluoropropoxy)-[1,2,4]triazolo[1,5-a]pyridin-2-amine [Example 54] | 14 nM |
